According to the NIST ThermoML archive (doi:10.1016/j.jct.2004.07.027):

Assay: mn = molality of the nth substance listed, in mol/kg
Settings: 350 kPa, Liquid, Extra sensitive DSC

C1COCCOCCOCCOCCOCCO1 [1,4,7,10,13,16-hexaoxacyclooctadecane] + O
Settings | apparent molar heat capacity [J/K/mol]
338.15 K, m1 = 0.01001 | 925.2
338.15 K, m1 = 0.02001 | 920.5
338.15 K, m1 = 0.03002 | 920.9
338.15 K, m1 = 0.0401 | 927.9
338.15 K, m1 = 0.04995 | 928.1
338.15 K, m1 = 0.06015 | 927.8
338.15 K, m1 = 0.08002 | 927.2
338.15 K, m1 = 0.1224 | 926.44
338.15 K, m1 = 0.1472 | 926.89
338.15 K, m1 = 0.1935 | 925.61
338.15 K, m1 = 0.2925 | 924.48
343.15 K, m1 = 0.01001 | 932.5
343.15 K, m1 = 0.02001 | 929.1
343.15 K, m1 = 0.03002 | 929.3
343.15 K, m1 = 0.0401 | 936.1
343.15 K, m1 = 0.04995 | 936.3
343.15 K, m1 = 0.06015 | 936.3
343.15 K, m1 = 0.08002 | 935.5
343.15 K, m1 = 0.1224 | 934.88
343.15 K, m1 = 0.1472 | 935.27
343.15 K, m1 = 0.1935 | 934.03
343.15 K, m1 = 0.2925 | 932.93
348.15 K, m1 = 0.01001 | 939.9
348.15 K, m1 = 0.02001 | 936.3
348.15 K, m1 = 0.03002 | 936.4
348.15 K, m1 = 0.0401 | 942.7
348.15 K, m1 = 0.04995 | 943.1
348.15 K, m1 = 0.06015 | 943.5
348.15 K, m1 = 0.08002 | 942.4
348.15 K, m1 = 0.1224 | 941.88
348.15 K, m1 = 0.1472 | 942.17
348.15 K, m1 = 0.1935 | 941.03
348.15 K, m1 = 0.2925 | 939.88
353.15 K, m1 = 0.01001 | 946.2
353.15 K, m1 = 0.02001 | 942
353.15 K, m1 = 0.03002 | 942.4
353.15 K, m1 = 0.0401 | 949
353.15 K, m1 = 0.04995 | 949.2
353.15 K, m1 = 0.06015 | 949
353.15 K, m1 = 0.08002 | 948.1
353.15 K, m1 = 0.1224 | 947.6
353.15 K, m1 = 0.1472 | 947.8
353.15 K, m1 = 0.1935 | 946.84
353.15 K, m1 = 0.2925 | 945.53
358.15 K, m1 = 0.01001 | 951.4
358.15 K, m1 = 0.02001 | 946.9
358.15 K, m1 = 0.03002 | 947.4
358.15 K, m1 = 0.0401 | 954.1
358.15 K, m1 = 0.04995 | 954
358.15 K, m1 = 0.06015 | 953.6
358.15 K, m1 = 0.08002 | 952.9
358.15 K, m1 = 0.1224 | 952.29
358.15 K, m1 = 0.1472 | 952.42
358.15 K, m1 = 0.1935 | 951.41
358.15 K, m1 = 0.2925 | 949.82
363.15 K, m1 = 0.01001 | 956.3
363.15 K, m1 = 0.02001 | 950.6
363.15 K, m1 = 0.03002 | 951.5
363.15 K, m1 = 0.0401 | 957.7
363.15 K, m1 = 0.04995 | 957.7
363.15 K, m1 = 0.06015 | 957.3
363.15 K, m1 = 0.08002 | 956.5
363.15 K, m1 = 0.1224 | 955.71
363.15 K, m1 = 0.1472 | 955.85
363.15 K, m1 = 0.1935 | 954.72
363.15 K, m1 = 0.2925 | 952.93
368.15 K, m1 = 0.01001 | 958.6
368.15 K, m1 = 0.02001 | 953.5
368.15 K, m1 = 0.03002 | 954.4
368.15 K, m1 = 0.0401 | 959.7
368.15 K, m1 = 0.04995 | 960.2
368.15 K, m1 = 0.06015 | 959.9
368.15 K, m1 = 0.08002 | 959.2
368.15 K, m1 = 0.1224 | 958.26
368.15 K, m1 = 0.1472 | 958.12
368.15 K, m1 = 0.1935 | 957
368.15 K, m1 = 0.2925 | 954.88
373.15 K, m1 = 0.01001 | 959.1
373.15 K, m1 = 0.02001 | 955.6
373.15 K, m1 = 0.03002 | 955.9
373.15 K, m1 = 0.0401 | 960.6
373.15 K, m1 = 0.04995 | 961.7
373.15 K, m1 = 0.06015 | 961.5
373.15 K, m1 = 0.08002 | 960.8
373.15 K, m1 = 0.1224 | 959.82
373.15 K, m1 = 0.1472 | 959.52
373.15 K, m1 = 0.1935 | 958.21
373.15 K, m1 = 0.2925 | 955.86
378.15 K, m1 = 0.01001 | 960.1
378.15 K, m1 = 0.02001 | 955.9
378.15 K, m1 = 0.03002 | 957.7
378.15 K, m1 = 0.0401 | 960.8
378.15 K, m1 = 0.04995 | 962.6
378.15 K, m1 = 0.06015 | 962.6
378.15 K, m1 = 0.08002 | 961.5
378.15 K, m1 = 0.1224 | 960.5
378.15 K, m1 = 0.1472 | 960.13
378.15 K, m1 = 0.1935 | 958.64
378.15 K, m1 = 0.2925 | 956.01
383.15 K, m1 = 0.01001 | 960.3
383.15 K, m1 = 0.02001 | 956.3
383.15 K, m1 = 0.03002 | 959.2
383.15 K, m1 = 0.0401 | 959.6
383.15 K, m1 = 0.04995 | 962.7
383.15 K, m1 = 0.06015 | 962.5
383.15 K, m1 = 0.08002 | 961.5
383.15 K, m1 = 0.1224 | 960.35
383.15 K, m1 = 0.1472 | 959.95
383.15 K, m1 = 0.1935 | 958.25
383.15 K, m1 = 0.2925 | 955.31
388.15 K, m1 = 0.01001 | 958.8
388.15 K, m1 = 0.02001 | 955.7
388.15 K, m1 = 0.03002 | 959.9
388.15 K, m1 = 0.0401 | 956.7
388.15 K, m1 = 0.04995 | 962.3
388.15 K, m1 = 0.06015 | 961.8
388.15 K, m1 = 0.08002 | 960.8
388.15 K, m1 = 0.1224 | 959.65
388.15 K, m1 = 0.1472 | 959.06
388.15 K, m1 = 0.1935 | 957.22
388.15 K, m1 = 0.2925 | 954.17
393.15 K, m1 = 0.01001 | 958.8
393.15 K, m1 = 0.02001 | 954.7
393.15 K, m1 = 0.03002 | 967.1
393.15 K, m1 = 0.0401 | 951.9
393.15 K, m1 = 0.04995 | 961.7
393.15 K, m1 = 0.06015 | 961.2
393.15 K, m1 = 0.08002 | 960.2
393.15 K, m1 = 0.1224 | 958.56
393.15 K, m1 = 0.1472 | 957.61
393.15 K, m1 = 0.1935 | 955.72
393.15 K, m1 = 0.2925 | 952.32
